Converted amounts (≈) assume the structure as drawn.
Test system: KB
Assay: Cytotoxicity against human KB cells
Assay type: functional
Settings: read-out: ED50 (the source's name)

SMILES | EC50 [µg/mL]
COc1cc2ccnc3c2c(c1OC)-c1ccccc1C3=O [LYSICAMINE] | > 10
COc1c(OC)c2c3c(nccc3c1OC)C(=O)c1ccccc1-2 [HOMOMOSCHATOLINE] | > 10
O=C1c2ccccc2-c2c3c(cc4ccnc1c24)OCO3 [LIRIODENINE] | 3.1 (≈ 11.3 µM)

From ChEMBL document CHEMBL1151381, “Aporphine Alkaloids From Annona acuminata” (1982)
